Assay results reported in paper PMC5085761 (International Journal of Molecular Sciences, 2016).

Legend:
human MRP4 = target: T1, human MRP4 (Homo sapiens, UniProt O15439); test: [14C]fluciclovine uptake by MRP4-expressing inside-out vesicles; assay type: in vitro ADME
T1 construct: purchased GenoMembrane Co., Ltd. (Kanagawa, Japan); host or cells: Sf9
T1 sequence (O15439 1-1325): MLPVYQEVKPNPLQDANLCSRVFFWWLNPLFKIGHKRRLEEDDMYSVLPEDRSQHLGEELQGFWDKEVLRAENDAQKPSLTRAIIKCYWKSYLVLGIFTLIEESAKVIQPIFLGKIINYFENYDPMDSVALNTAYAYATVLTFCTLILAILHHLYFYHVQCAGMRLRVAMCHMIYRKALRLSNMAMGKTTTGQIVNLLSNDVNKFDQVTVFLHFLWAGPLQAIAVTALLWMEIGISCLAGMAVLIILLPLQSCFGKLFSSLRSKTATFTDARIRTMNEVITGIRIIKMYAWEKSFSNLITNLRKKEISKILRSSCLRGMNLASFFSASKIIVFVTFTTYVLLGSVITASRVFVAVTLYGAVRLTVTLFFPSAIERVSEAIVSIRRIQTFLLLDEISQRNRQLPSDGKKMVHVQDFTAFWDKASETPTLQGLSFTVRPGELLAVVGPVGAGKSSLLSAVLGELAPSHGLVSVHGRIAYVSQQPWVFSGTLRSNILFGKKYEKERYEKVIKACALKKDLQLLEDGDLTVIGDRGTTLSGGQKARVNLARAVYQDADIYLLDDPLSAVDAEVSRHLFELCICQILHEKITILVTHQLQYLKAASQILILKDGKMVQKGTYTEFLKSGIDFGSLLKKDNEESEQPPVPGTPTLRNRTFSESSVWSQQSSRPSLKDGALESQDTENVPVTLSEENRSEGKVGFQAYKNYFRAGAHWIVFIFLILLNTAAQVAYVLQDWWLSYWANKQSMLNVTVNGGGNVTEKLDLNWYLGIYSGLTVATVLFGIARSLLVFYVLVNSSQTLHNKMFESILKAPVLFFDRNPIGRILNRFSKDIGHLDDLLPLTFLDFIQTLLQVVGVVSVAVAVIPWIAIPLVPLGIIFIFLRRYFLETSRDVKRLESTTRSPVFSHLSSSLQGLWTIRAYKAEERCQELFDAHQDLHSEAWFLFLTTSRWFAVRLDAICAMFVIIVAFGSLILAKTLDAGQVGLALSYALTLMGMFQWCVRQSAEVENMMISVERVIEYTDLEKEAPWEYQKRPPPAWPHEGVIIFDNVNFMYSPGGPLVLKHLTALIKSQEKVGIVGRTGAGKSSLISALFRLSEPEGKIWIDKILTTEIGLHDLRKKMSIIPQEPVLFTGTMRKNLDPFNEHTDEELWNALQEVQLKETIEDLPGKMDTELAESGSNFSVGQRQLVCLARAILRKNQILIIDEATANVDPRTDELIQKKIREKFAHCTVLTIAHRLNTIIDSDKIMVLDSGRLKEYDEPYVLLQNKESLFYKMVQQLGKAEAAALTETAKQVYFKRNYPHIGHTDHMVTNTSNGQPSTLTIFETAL
Procedure: (§1) For ABC transporters, experimental kits containing Sf9-derived vesicles with high expression levels of human P-gp, MRP4, BCRP, and each ABC transporter (including buffer, ATP/AMP solution, and glutathione) were purchased from GenoMembrane Co., Ltd. (Kanagawa, Japan).
(§2) Vesicular transport assays were carried out according to the manufacturer’s protocol. […] The reaction was started by suspending 50 μg of vesicles (10 μL) in 40 μL of the reaction buffer. After incubation for an appropriate period of time, the reaction was stopped by the addition of ice-cold stop buffer (40 mM MOPS-Tris and 70 mM KCl; pH 7.0), after which the solution was filtered through a 0.45 μm HA filter (Millipore Corp., Billerica, MA, USA) using suction, and was washed twice in 5 mL of ice-cold stop buffer. The radioactivity of the filter was measured with a Tri-Carb 2910TR liquid scintillation counter (PerkinElmer) using Ultima Gold (PerkinElmer). The amount of tracer uptake was normalized to the membrane protein amount described in the product information sheets.

human BCRP = target: T2, human BCRP (Homo sapiens, UniProt Q9UNQ0); test: Inhibition of tracer uptake in BCRP-expressing vesicles; assay type: in vitro ADME; conditions: ES 0.1 µM, 100 µM–12.5 mM fluciclovine
T2 construct: purchased GenoMembrane Co., Ltd. (Kanagawa, Japan); host or cells: Sf9
T2 sequence (Q9UNQ0 1-655): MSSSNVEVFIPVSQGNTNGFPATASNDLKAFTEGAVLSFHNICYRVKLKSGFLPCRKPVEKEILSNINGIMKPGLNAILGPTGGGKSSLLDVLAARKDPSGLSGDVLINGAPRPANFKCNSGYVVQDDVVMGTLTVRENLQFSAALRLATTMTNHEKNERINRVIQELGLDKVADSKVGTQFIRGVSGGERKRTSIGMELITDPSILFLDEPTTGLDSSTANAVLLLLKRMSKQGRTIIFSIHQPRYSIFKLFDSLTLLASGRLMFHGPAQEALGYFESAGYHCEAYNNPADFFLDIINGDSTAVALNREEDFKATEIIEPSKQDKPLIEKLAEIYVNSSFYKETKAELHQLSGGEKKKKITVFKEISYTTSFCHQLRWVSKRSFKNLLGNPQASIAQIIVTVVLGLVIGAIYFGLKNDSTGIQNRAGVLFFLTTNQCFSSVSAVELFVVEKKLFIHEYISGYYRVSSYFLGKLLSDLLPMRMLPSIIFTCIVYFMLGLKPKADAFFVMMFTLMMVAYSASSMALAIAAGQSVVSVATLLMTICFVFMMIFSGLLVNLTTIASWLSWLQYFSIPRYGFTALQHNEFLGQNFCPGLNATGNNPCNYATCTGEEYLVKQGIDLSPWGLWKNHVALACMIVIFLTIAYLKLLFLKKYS
Procedure: as §1, §2

Structure (SMILES) | uptake compared with control vesicles (human MRP4) | inhibition of transport of BCRP-specific substrate [3H]estrone-3-sulfate (human BCRP)
N[14C]1(C(=O)O)CC(F)C1 (stereo not drawn) [[^14C]fluciclovine, trans-1-amino-3-fluoro[1-^14C]cyclobutanecarboxylic acid] | no significant difference | –
N[C@]1(C(=O)O)C[C@@H](F)C1 [fluciclovine] | – | does not inhibit
